Results reported in patent US9907838B2, “Composition and methods for treating ischemic damage” (GEMVAX & KAEL CO., LTD., priority 2013, dated 2018).

Key:
[1] = tested on: renal ischemic-reperfusion injury mouse model; experiment: Renal failure markers (BUN and creatine) in renal ischemic-reperfusion injury mouse model; assay type: in vivo, C57BL/6 mouse; details: blood 24 hours after ischemic reperfusion; 1000 nmol/kg 30 minutes before and 12 hours after IR; compared to PBS control group
Protocol: (§1) A renal ischemic-reperfusion injury mouse model was established by inducing ischemic reperfusion by bilaterally clamping renal pedicles for 30 minutes and restoring blood flow 30 minutes later by removing the clamps. Test groups were divided into an administered group (PEP 1), a control group (PBS without PEP 1), and a sham group (no bilateral clamping). PEP 1 was […] injected at a concentration of 1000 nmol/kg 30 minutes before and 12 hours after the induction of ischemic reperfusion.
(§2) C57BL/6 mouse (8 weeks old; Charles River Laboratories, Wilmington, Mass.) was used to induce renal ischemic-reperfusion injury. After blocking blood flow by clamping the renal pedicles with vascular forceps and inducing ischemia for […], reperfusion was performed.
The peptide PEP 1 was diluted in PBS to a concentration of 1000 nmol/kg and intraperitoneally (i.p.) injected twice 30 minutes before and 12 hours after the ischemic reperfusion. […]
Blood was taken 24 hours after the ischemic reperfusion and the levels of blood urea nitrogen (BUN) and creatine as renal toxicity markers were measured. […] Then, proteins were extracted and the levels of cytokines were measured. The concentrations of creatine and BUN were measured using an autoanalyzer (Technicon RA-1000; Bayer, Tarrytown, N.Y.).

[2] = tested on: renal ischemic-reperfusion injury mouse model; experiment: Renal tissue injury scoring after PAS staining in renal ischemic-reperfusion injury mouse model; assay type: in vivo, C57BL/6 mouse; details: 24 hours after ischemic reperfusion; 1000 nmol/kg 30 minutes before and 12 hours after IR; compared to PBS control group
Protocol: as §1, §2
(§3) The peptide PEP 1 was diluted in PBS to a concentration of 1000 nmol/kg and intraperitoneally (i.p.) injected twice 30 minutes before and 12 hours after the ischemic reperfusion. The test was conducted for the administered group (PEP 1), the control group (PBS), and the sham group (no ischemic reperfusion).
Renal tissue was stained with periodic acid-Schiff (PAS) stain according to the protocol of the manufacturer (Polysciences, Inc., Warrington, Pa., USA) 24 hours after the ischemic reperfusion. After the staining, renal tissue injury was evaluated through renal tissue injury scoring.

[3] = tested on: renal ischemic-reperfusion injury mouse model; experiment: Renal apoptosis by TUNEL staining in renal ischemic-reperfusion injury mouse model; assay type: in vivo, C57BL/6 mouse; details: 24 hours after ischemic reperfusion; 1000 nmol/kg 30 minutes before and 12 hours after IR; compared to PBS control group
Protocol: as §1, §2, §3
Renal apoptosis was evaluated by staining renal tissue with TUNEL stain 24 hours after the ischemic reperfusion. Renal paraffin sections were stained with TUNEL using a TUNEL staining kit (Roche Applied Science, Indianapolis, Ind., USA).

[4] = tested on: renal ischemic-reperfusion injury mouse model; experiment: Infiltration of innate immune cells (F4/80, Gr-1 staining) in renal tissue, renal ischemic-reperfusion injury mouse model; assay type: in vivo, C57BL/6 mouse; details: 24 hours after ischemic reperfusion; 1000 nmol/kg 30 minutes before and 12 hours after IR; compared to PBS control group
Protocol: as §1, §2, §3
Infiltration of innate immune cells was evaluated by immnohistologically staining renal tissue with F4/80 (macrophage maker) and Gr-1 (neutrophil maker) 24 hours after the ischemic reperfusion. […]

[5] = tested on: renal ischemic-reperfusion injury mouse model; experiment: Inflammatory cytokine levels (IL-6, MCP-1, TNF-α) in renal tissue, renal ischemic-reperfusion injury mouse model; assay type: in vivo, C57BL/6 mouse; details: protein extracted from renal tissue 24 hours after ischemic reperfusion; 1000 nmol/kg twice; compared to PBS control group
Protocol: as §1, §2, §3
Blood was taken 24 hours after the ischemic reperfusion and the levels of blood urea nitrogen (BUN) and creatine as renal toxicity markers were measured. Renal tissue was taken and prepared into paraffin blocks for immunohistochemical and histological studies. Then, proteins were extracted and the levels of cytokines were measured. The concentrations of creatine and BUN were measured using an autoanalyzer (Technicon RA-1000; Bayer, Tarrytown, N.Y.).
Protein was extracted from renal tissue 24 hours after the ischemic reperfusion and the levels of IL-6, MCP-1 and TNF-α were measured according to the cytometric bead array method. Mouse IL-6, MCP-1, TNF-α ELISA kits were purchased from R&D Systems and the test was conducted according to the manufacturer's protocol.

[6] = tested on: rat model of ischemic-reperfusion injury (abdominal skin flaps); experiment: Flap survivability in rat skin flap model of ischemic-reperfusion injury; assay type: in vivo, Sprague-Dawley rats; details: 7 days after induction of ischemic reperfusion; 10 mg/500 μL intramuscularly 30 minutes before and 1, 2, 3, 4, 5 and 7 days after; PBS-treated group 34.69%±16.44%; p<0.05
Protocol: A rat model of ischemic-reperfusion injury was established by acquiring 5 cm×5 cm skin flaps from the abdomen of Sprague-Dawley rats (weighing 180-230 g), administering PEP1 or saline, inducing local ischemia through clamping and then restoring blood flow 7 hours later by removing the clamps (see FIG. 11).
Test groups were divided into an administered group (PEP 1), a control group (PBS without PEP 1), and a sham group (no ischemic-reperfusion injury induced). PEP 1 (10 mg/500 μL) or PBS (500 μL) was intramuscularly injected 30 minutes before and 1, 2, 3, 4, 5 and 7 days after the induction of ischemic reperfusion.
Flap survivability was measured 7 days after the induction of ischemic reperfusion. The flap survival rate was measured through analysis of digital images using the imageJ program.

Q: Which results are given for “EARPALLTSRLRFIPK (listed as Homo sapiens) [PEP 1]”?
A: blood urea nitrogen (BUN) level [1]: significantly decreased; creatine level [1]: significantly decreased; renal tissue injury (renal tissue injury scoring, PAS stain) [2]: remarkably decreased; TUNEL-positive cells in renal tissue [3]: remarkably decreased; infiltration of macrophages (F4/80) into renal tissue [4]: remarkably decreased; infiltration of neutrophils (Gr-1) into renal tissue [4]: remarkably decreased; IL-6 level in renal tissue [5]: significantly decreased; MCP-1 level in renal tissue [5]: significantly decreased; TNF-α level in renal tissue [5]: no significant difference; flap survival rate [6]: 58.88%±11.44%
